# According to patent US12336980B2, “Dosing regimen for a selective S1P1 receptor agonist” (Vanda Pharmaceuticals Inc., priority 2014, dated 2025):
# Assays:
# healthy subjects [1] = test: Holter ECG, mean hourly heart rate and AUEC, two-way cross-over up-titration study; type: in vivo, human; settings: for mean hourly HR change from baseline at nadir (Holter): p <0.05 vs. baseline; for mean hourly HR change from baseline (Holter): Day 3, 2 h post-dose
# Experimental: (§1) In a single-center, double-blind, placebo-controlled, randomized, two-way cross-over study, 32 healthy subjects (15 males) received placebo on Day 1 followed by multiple-dose administration of either ponesimod or placebo (ratio 3:1). Ponesimod was administered alternately using regimen A (incremental dose increase from 2 to 20 mg) or B (10 mg for 7 days followed by a single-dose administration of 20 mg). Cardiodynamic (Holter and 12-lead ECG), pharmacokinetic, pharmacodynamic (total lymphocyte count), and safety variables were assessed.
# (§2) The enrolled subjects came to the study center for each treatment period on Day −2 and participated in a run-in (all study procedures performed without study drug administration) on Day −1. On Day 1, subjects were randomized to one of the two possible sequences of the two up-titration regimens A and B (ratio 1:1). On Day 1, all subjects received placebo; the first study drug administration (or its matching placebo) occurred on Day 2. Regimen A consisted of the novel up-titration regimen: ponesimod was administered once daily (o.d.) orally at a dose of 2 mg on Day 2 and Day 3, 3 mg on Day 4 and Day 5, 4 mg on Day 6 and Day 7, 5 mg on Day 8, 6 mg on Day 9, 7 mg on Day 10, 8 mg on Day 11, 9 mg on Day 12, 10 mg on Day 13 and Day 14, and 20 mg on Day 15. The reference regimen (regimen B) was based on previous studies (Olsson T. et al., Oral ponesimod in relapsing-remitting multiple sclerosis: a randomised phase II trial. J Neurol Neurosurg Psychiatry. 2014; 85 (11): 1198-1208; and Vaclavkova A. et al., Oral ponesimod in patients with chronic plaque psoriasis: a randomised, double-blind, placebo-controlled phase 2 trial. Lancet. 2014; 384 (9959): 2036-2045) and consisted of an o.d. oral administration of ponesimod at a dose of 10 mg for 7 days (i.e., from Day 2 to Day 8) and 20 mg on Day 9. From Day 10 to Day 15 subjects received o.d. the matching placebo. In the placebo group (1:1 sex ratio), subjects received placebo from Day 1 to Day 15. All treatments were administered at the same time in the morning (fasted condition) with approximately 240 mL of water.
# Cardiodynamic endpoints were assessed using Holter and 12-lead ECG. The 24-h Holter recordings were performed on Day -1, Day 1, Day 2, Day 9, Day 13, and Day 15. The 12-h Holter recordings were performed on the other days. In addition, Holter data were used to estimate the area under the effect curve (AUEC) for HR. 12-lead ECGs were performed from Day −1 to Day 16 at pre-dose and 1, 2, 3, 4, 5, 6, 8, 10, and 12 h after study drug administration. An additional 12-lead ECG recording was performed at EOFP and EOS. Heart rate nadir, Emax (maximum decrease of mean hourly HR from baseline, which was defined as the mean of the time-matched assessments measured on Day −1 and Day 1 pre-dose), and occurrence of values of interest (HR <45 bpm, HR decrease from baseline >20 bpm, and PR interval increase from baseline >20 ms), and AV-blocks (i.e., PR interval >210 ms) were obtained with 12-lead ECG.
# Cardiodynamic and pharmacodynamic data are expressed as mean±SD. Repeated measure one-way ANOVAs followed by Tukey's multiple-comparisons tests were used to perform inter-group (i.e., placebo vs. regimen A vs. regimen B) comparisons. Student's t-tests were employed to perform intra-group (baseline vs. treatment) comparisons. Differences were considered to be statistically significant at p <0.05. SAS® version 9.2 (SAS Institute, Cary, NC, USA) was used for the statistical analysis and descriptive statistics of clinical data.
# healthy subjects [2] = test: Safety and tolerability, adverse events; type: in vivo, human
# Experimental: as §1, §2
# Safety and tolerability were evaluated by monitoring adverse events (AEs), vital signs measurements (supine blood pressure), pulmonary function tests (PFTs; i.e., FEV1 and FVC), clinical laboratory, physical, and neurological examinations. Recording of blood pressure was performed at the same time-points as 12-lead ECG.
smiles,measurement,setting,value
"CCC/N=C1\S/C(=C\c2ccc(OC[C@H](O)CO)c(Cl)c2)C(=O)N1c1ccccc1C [ponesimod, (R)-5-[3-chloro-4-(2,3-dihydroxy-propoxy)-benz[Z]ylidene]-2-([Z]-propylimino)-3-o-tolyl-thiazolidin-4-one]",time for mean hourly HR to return to pre-dose values after administration,"healthy subjects [1]; Day 2 first dose, regimens A and B",4 to 5 h
same,decrease in mean hourly HR following administration,healthy subjects [1]; Day 4 to last day of treatment,no further significant decreases
same,mean hourly HR change from baseline at nadir (Holter),"healthy subjects [1]; regimen A (2 mg), Day 2 first dose, 2 h post-dose, mean±SD",−6±7.4 bpm
same,mean hourly HR change from baseline (Holter),"healthy subjects [1]; regimen A (2 mg), mean±SD",−8±5.3 bpm
same,mean AUEC0-12 for HR,"healthy subjects [1]; regimen A, Day 2 first administration, mean±SD",−70.7±38.7 bpm·h
same,time of nadir of mean hourly HR after administration,"healthy subjects [1]; regimen A, Day 2 first dose",2 h
same,mean AUEC0-12 for HR,"healthy subjects [1]; regimen A, Day 3, mean±SD",−105.5±49.0 bpm·h
same,mean hourly HR change from baseline at nadir (Holter),"healthy subjects [1]; regimen B (10 mg), Day 2 first dose, 3 h post-dose, mean±SD",−12±6.9 bpm
same,mean hourly HR change from baseline (Holter),"healthy subjects [1]; regimen B (10 mg), mean±SD",−9±5.7 bpm
same,mean AUEC0-12 for HR,"healthy subjects [1]; regimen B (ponesimod 10 mg), Day 3, mean±SD",−146.6±59.8 bpm·h
same,mean AUEC0-12 for HR,"healthy subjects [1]; regimen B, Day 2 first administration, mean±SD",−128.6±63.3 bpmh
same,time of nadir of mean hourly HR after administration,"healthy subjects [1]; regimen B, Day 2 first dose",3 h
same,time of serious AE of atrial fibrillation after administration,healthy subjects [2]; 20 mg ponesimod (regimen B),6 h
same,time to resolution of serious AE of atrial fibrillation without sequelae,healthy subjects [2]; 20 mg ponesimod (regimen B),≤ 24 h
same,serious AE,healthy subjects [2]; after 20 mg ponesimod (regimen B),One serious AE of atrial fibrillation
same,intensity of AEs,healthy subjects [2]; all treatment groups,mild to moderate
same,most commonly reported AEs,"healthy subjects [2]; on ponesimod, also among the most common in the placebo group","headache, dizziness, and procedural site reaction"
same,AEs of special interest related to cardiac function (sinus bradycardia and palpitations),healthy subjects [2]; regimen B vs regimen A,reported more frequently during regimen B compared to regimen A
